How the values were obtained:
[1] = tested on: Triton WR 1339 induced dyslipidemia in Albino rats (Sprague Dawley strain); assay: Hypolipidemic activity of product 3 compared with amla seed powder, Triton WR 1339 model (Example 26); type: in vivo, rat
Description: Twenty eight male Albino rats (Sprague Dawley strain) weighing approximately 250-300 gm were selected for the study. The animals were maintained at temperature of 24±2° C., 65% relative humidity and 12 hr light/dark cycle. The rats were acclimatized for two weeks and during this period they had access to standard pellet diet and water ad libitum. After two weeks of acclimatization, all the rats were fasted overnight before injecting Triton WR 1339 (Tyloxapol) and administration of test extracts/standard. The animals were divided into seven groups. Following treatment was given to overnight fasted rats: • Group I: Normal control (vehicle only) • Group II: Triton WR 1339 (300 mg/kg, intraperitoneal) • Group III: Triton WR 1339 (300 mg/kg, intraperitoneal) followed by administering product of amla seed extract (product 3) on the same day of triton administration (0.5 mg/kg, per oral) • Group IV: Triton WR 1339 (300 mg/kg, intraperitoneal) followed by product 2 (50% methanol fraction+80% methanol fraction+water fraction) of amla seed extract on the same day that Triton was administered (0.5 mg/kg, per oral) • Group V: Triton WR 1339 (300 mg/kg, intraperitoneal) followed by product 1 (Hexane fraction) of amla seed extract on the same day that Triton was administered (0.5 mg/kg, per oral) • Group VI: Triton WR 1339 (300 mg/kg, intraperitoneal) followed by powder of dried amla seed prepared as per Example 7 (0.5 mg/kg, per oral). The powder of dried amla seed was administered on the same day as triton was administered. • Group VII: Triton WR 1339 (300 mg/kg, intraperitoneal) followed by atorvastatin administration (10 mg/kg, per oral), on the same day.
(§1) The animals were deprived of food for next 24 hours but had free access to water ad libitum. After 24 hours of drug treatment, 2 ml of blood sample was collected from the retro orbital plexus. The blood was allowed to clot and then centrifuged at 3000 rpm for 10 min and the serum was carefully drawn and collected into separate tubes. The serum was analyzed for total cholesterol, triglycerides, high density lipoproteins (HDL), low density lipoproteins (LDL) and very low density lipoproteins (VLDL) levels using auto-analyzer.

[2] = tested on: Triton WR 1339 induced dyslipidemia in Albino rats (Sprague Dawley strain); assay: Hypolipidemic activity of enriched amla seed extract, Triton WR 1339 model (Example 28); type: in vivo, rat
Description: Fifty two male Albino rats (Sprague Dawley strain) weighing approximately 250-300 gm were selected for the study. The animals were maintained at temperature of 24±2° C., 65% relative humidity and 12 hr light/dark cycle. The rats were acclimatized for two weeks and during this period they had access to standard pellet diet and water ad libitum. After two weeks of acclimatization, all the rats were fasted overnight before injecting Triton WR 1339 (Tyloxapol) and administration of test extracts/standard. The animals were divided into thirteen groups. Following treatment was given to overnight fasted rats: • Group I: Normal control (vehicle only). • Group II: Triton WR 1339 (300 mg/kg, intraperitoneal). • Group III: Triton WR 1339 (300 mg/kg, intraperitoneal) followed by administering sample 1 of Amla seed extract prepared as per example 27 on the same day of triton administration (0.5 mg/kg, per oral). • Group IV: Triton WR 1339 (300 mg/kg, intraperitoneal) followed by Amla seed extract prepared as per example 1 (0.5 mg/kg, per oral). • Group V: Triton WR 1339 (300 mg/kg, intraperitoneal) followed by sample 2 which is a 1:1 combination of amla seed extract (sample 1) prepared as per example 27 and product 1 (Hexane fraction) of amla seed extract prepared as per example 13 on the same day that Triton was administered (0.5 mg/kg, per oral). • Group VI: Triton WR 1339 (300 mg/kg, intraperitoneal) followed by administering product of amla seed extract (product 3) prepared as per example 13 on the same day of triton administration (0.5 mg/kg, per oral). • Group VII: Triton WR 1339 (300 mg/kg, intraperitoneal) followed by product 2 (50% methanol fraction+80% methanol fraction+water fraction) of amla seed extract prepared as per example 13 on the same day that triton was administered (0.5 mg/kg, per oral). • Group VIII: Triton WR 1339 (300 mg/kg, intraperitoneal) followed by product 1 (hexane fraction) of amla seed extract prepared as per example 13 on the same day that triton was administered (0.5 mg/kg, per oral). • Group IX: Triton WR 1339 (300 mg/kg, intraperitoneal) followed by water extract of dried amla seed powder prepared as per example 8 (0.5 mg/kg, per oral). • Group X: Triton WR 1339 (300 mg/kg, intraperitoneal) followed by methanol extract of dried amla seed powder prepared as per example 9 (0.5 mg/kg, per oral). • Group XI: Triton WR 1339 (300 mg/kg, intraperitoneal) followed by water extract of dried amla fruit powder prepared as per example 11 (0.5 mg/kg, per oral). • Group XII: Triton WR 1339 (300 mg/kg, intraperitoneal) followed by methanol extract of dried amla fruit powder prepared as per example 12 (0.5 mg/kg, per oral). • Group XIII: Triton WR 1339 (300 mg/kg, intraperitoneal) followed by atorvastatin administration (10 mg/kg, per oral), on the same day.
as §1

[3] = 24 h after Triton i.p. + 10 mg/kg p.o.

## CC(C)c1c(C(=O)Nc2ccccc2)c(-c2ccccc2)c(-c2ccc(F)cc2)n1CC[C@@H](O)C[C@@H](O)CC(=O)O [Atorvastatin]
[1]; [3]
  HDL After: 38.46 mg/dL
  LDL After: 44.30 mg/dL
  TC After: 121.21 mg/dL
  TG After: 192.25 mg/dL
  VLDL After: 44.30 mg/dL
[1]; baseline, 10 mg/kg p.o. group
  HDL Before: 35.54 mg/dL
  LDL Before: 58.22 mg/dL
  TC Before: 103.47 mg/dL
  TG Before: 48.54 mg/dL
  VLDL Before: 58.22 mg/dL
[2]; [3]
  HDL After: 35.1 mg/dL
  LDL After: 49.39 mg/dL
  TC After: 124.54 mg/dL
  TG After: 200.25 mg/dL
  VLDL After: 40.06 mg/dL
[2]; baseline, 10 mg/kg p.o. group
  HDL Before: 32.41 mg/dL
  LDL Before: 61.7 mg/dL
  TC Before: 104.21 mg/dL
  TG Before: 50.54 mg/dL
  VLDL Before: 10 mg/dL
